Experimental data: paper PMC5678437, “A new antagonist for CCR4 attenuates allergic lung inflammation in a mouse model of asthma” (Scientific Reports, 2017)

Assays:
Type in all cases: cell-based
Details in all cases: compound as chemoattractant in lower chamber, 0.2, 1, 5, 25 μM
CCR6 = target: T1, CCR6 (Homo sapiens, UniProt P51684); test: Chemotaxis assay for receptor specificity, HEK293-CCR6
T1 construct: expressed in transfected cells; host or cells: HEK293, pcDI-CCR6 plasmid made in the authors' laboratory
T1 sequence (P51684 1-374): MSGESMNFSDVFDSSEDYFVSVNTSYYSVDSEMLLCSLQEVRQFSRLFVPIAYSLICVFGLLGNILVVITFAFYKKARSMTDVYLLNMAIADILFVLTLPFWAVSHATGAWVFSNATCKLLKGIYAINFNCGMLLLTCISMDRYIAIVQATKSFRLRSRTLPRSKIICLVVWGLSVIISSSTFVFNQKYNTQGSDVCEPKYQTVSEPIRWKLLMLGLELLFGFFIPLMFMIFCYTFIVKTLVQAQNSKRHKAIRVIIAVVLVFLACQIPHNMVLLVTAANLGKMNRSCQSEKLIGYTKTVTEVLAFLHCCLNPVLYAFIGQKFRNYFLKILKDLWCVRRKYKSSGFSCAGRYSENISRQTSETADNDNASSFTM
Protocol: (§1) HEK293 cells were transfected with different chemokine receptors. Compound 8a with DMSO was diluted to 0.2 mM, 1 mM, 5 mM and 25 mM, and then we used RPMI 1640 medium containing 0.1% BSA for dilution. The final concentration is: 0.2 μM, 1 μM, 5 μM and 25 μM. DMSO was also diluted 1000-fold with 0.1% BSA RPMI 1640 medium. Chemokines was also diluted to an appropriate concentration. The dilutions of Compound 8a, 1‰ DMSO, the corresponding chemokines of different receptors and 0.1% BSA RPMI 1640 medium were placed in the lower chambers (27.5 μl/well). The transfected HEK293 cells were resuspended in the same medium at a density of 1 × 10^6 cells/ml and added to the upper chambers (55 μl/well).

CCR7 = target: T2, CCR7 (Homo sapiens, UniProt P32248); test: Chemotaxis assay for receptor specificity, HEK293-CCR7
T2 construct: expressed in transfected cells; host or cells: HEK293, pcDB-CCR7 plasmid made in the authors' laboratory
T2 sequence (P32248 25-378): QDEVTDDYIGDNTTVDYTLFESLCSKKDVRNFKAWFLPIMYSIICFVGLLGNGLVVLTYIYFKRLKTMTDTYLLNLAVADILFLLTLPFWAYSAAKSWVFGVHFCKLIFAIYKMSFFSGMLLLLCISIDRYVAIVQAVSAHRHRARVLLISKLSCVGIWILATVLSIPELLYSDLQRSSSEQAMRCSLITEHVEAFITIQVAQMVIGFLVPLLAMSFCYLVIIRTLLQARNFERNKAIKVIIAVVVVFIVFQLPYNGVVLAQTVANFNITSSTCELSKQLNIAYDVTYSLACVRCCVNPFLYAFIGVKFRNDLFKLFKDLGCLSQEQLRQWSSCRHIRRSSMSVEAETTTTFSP
Protocol: as §1

CXCR1 = target: T3, CXCR1 (Homo sapiens, UniProt P25024); test: Chemotaxis assay for receptor specificity, HEK293-CXCR1
T3 construct: expressed in transfected cells; host or cells: HEK293; plasmid gift of Dr. Philip M. Murphy (NIAID, NIH)
T3 sequence (P25024 1-350): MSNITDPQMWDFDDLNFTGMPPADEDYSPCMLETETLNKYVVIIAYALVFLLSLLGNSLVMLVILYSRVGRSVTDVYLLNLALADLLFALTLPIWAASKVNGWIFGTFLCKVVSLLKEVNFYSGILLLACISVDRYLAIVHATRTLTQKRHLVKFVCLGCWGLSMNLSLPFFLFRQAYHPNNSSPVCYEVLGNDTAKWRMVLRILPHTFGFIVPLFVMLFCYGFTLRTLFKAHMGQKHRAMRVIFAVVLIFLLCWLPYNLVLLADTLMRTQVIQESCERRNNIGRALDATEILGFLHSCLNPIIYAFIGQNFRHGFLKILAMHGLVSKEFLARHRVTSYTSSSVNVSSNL
Protocol: as §1

O=C(C1CCCCN1)N1CCN(c2nc(Cl)cc(NCc3ccc(Cl)cc3Cl)n2)CC1 (stereo not drawn) [compound 8a, {4-[4-Chloro-6-(2,4-dichloro-benzylamino)-pyrimidin-2-yl]-piperazin-1-yl}-piperidin-2-yl-methanone]
didn’t exert chemotaxis effects: chemotaxis effect of the compound on HEK293-CCR6 (CCR6) | chemotaxis effect of the compound on HEK293-CCR7 (CCR7) | chemotaxis effect of the compound on HEK293-CXCR1 (CXCR1)
